Experimental data as given in patent US20230055237A1, “COMPOUNDS AND METHODS FOR THE TREATMENT OF CYSTIC FIBROSIS” (Flatley Discovery Lab, LLC, priority 2019, published 2023).

Target: T1, CFTR (Homo sapiens, UniProt P13569, DEL508-508)
T1 construct: Primary CF airway epithelial cells were obtained from the UNC Cystic Fibrosis Tissue Procurement and Cell Culture Core; host or cells: primary CF airway epithelial cells, differentiated at the air-liquid interface
Assay: Equivalent current assay in primary CF airway epithelial cells (NAUC, combination with 1st site corrector FDL169 or VX-809)
Format: cell-based
Details: 37° C., 24 h

[1] = test compound 1 μM in combination with 1st site corrector VX-809 (3 μM)
[2] = test compound 3 μM in combination with 1st site corrector VX-809 (3 μM)
[3] = test compound 10 μM in combination with 1st site corrector VX-809 (3 μM)
[4] = test compound 1 μM in combination with 1st site corrector FDL169 (3 μM)
[5] = test compound 3 μM in combination with 1st site corrector FDL169 (3 μM)
[6] = test compound 10 μM in combination with 1st site corrector FDL169 (3 μM)

T1 sequence (P13569 with tags, fused parts or gaps DEL508-508): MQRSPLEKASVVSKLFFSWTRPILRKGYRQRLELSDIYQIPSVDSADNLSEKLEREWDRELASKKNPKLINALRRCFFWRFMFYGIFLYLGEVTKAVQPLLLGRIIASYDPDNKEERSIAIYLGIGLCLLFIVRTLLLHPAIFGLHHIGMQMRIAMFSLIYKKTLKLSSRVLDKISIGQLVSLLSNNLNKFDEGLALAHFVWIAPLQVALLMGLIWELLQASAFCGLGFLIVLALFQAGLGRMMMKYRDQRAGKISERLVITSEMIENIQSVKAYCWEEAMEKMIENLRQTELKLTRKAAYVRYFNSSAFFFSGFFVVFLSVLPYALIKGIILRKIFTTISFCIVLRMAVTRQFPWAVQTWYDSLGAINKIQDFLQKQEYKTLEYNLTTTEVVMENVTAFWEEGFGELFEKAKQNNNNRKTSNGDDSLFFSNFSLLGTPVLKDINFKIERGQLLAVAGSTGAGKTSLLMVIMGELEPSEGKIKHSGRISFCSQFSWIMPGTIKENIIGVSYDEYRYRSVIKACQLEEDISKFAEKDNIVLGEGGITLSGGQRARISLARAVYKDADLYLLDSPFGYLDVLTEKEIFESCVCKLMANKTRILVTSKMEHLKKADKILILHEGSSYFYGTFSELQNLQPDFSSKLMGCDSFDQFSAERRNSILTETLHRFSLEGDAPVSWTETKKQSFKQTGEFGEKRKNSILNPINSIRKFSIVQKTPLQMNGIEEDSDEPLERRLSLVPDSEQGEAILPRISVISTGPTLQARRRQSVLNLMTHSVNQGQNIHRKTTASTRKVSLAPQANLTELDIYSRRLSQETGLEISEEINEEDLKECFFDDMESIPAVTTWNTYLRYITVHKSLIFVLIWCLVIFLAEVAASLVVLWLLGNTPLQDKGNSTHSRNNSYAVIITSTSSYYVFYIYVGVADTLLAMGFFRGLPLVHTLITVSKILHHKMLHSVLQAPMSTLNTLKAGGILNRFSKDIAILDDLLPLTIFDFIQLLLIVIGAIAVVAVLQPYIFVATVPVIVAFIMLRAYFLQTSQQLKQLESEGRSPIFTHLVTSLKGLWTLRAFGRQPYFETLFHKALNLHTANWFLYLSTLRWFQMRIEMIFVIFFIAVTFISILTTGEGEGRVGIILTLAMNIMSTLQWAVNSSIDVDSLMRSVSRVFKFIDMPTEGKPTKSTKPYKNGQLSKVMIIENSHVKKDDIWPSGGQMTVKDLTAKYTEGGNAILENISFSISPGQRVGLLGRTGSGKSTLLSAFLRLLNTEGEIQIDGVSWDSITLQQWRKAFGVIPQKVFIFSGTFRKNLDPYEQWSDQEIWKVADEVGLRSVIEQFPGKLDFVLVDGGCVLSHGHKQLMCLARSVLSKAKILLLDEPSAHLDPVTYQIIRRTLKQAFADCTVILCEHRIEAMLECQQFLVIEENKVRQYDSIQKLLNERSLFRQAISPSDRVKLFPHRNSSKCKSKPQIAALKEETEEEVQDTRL

Row | Structure (SMILES) | Nauc @ 1 μM [1] | Nauc @ 3 μM [2] | Nauc @ 10 μM [3] | Nauc @ 1 μM [4] | Nauc @ 3 μM [5] | Nauc @ 10 μM [6]
1 | CN(C(=O)[C@H]1[C@@H](C(=O)O)[C@]2(C(=O)Nc3c(Cl)cc(Cl)cc32)N2CC(F)(F)C[C@@H]12)c1cc(Cl)cc(Cl)c1F (single isomer, unassigned) [Example 265a] | + (NAUC “+” refers to an observed NAUC <140% of positive control) | +++ (NAUC “+++” refers to an observed NAUC>170% of positive control) | +++ (NAUC “+++” refers to an observed NAUC>170% of positive control) | – | – | –
2 | O=C(Nc1cc(Cl)cc(Cl)c1)C1C(C(F)(F)c2ccc(Cl)cc2)NC2(C(=O)Nc3c(Cl)cc(Cl)cc32)C1C(=O)O (stereo not shown) [Example 67.9b, 5,7-dichloro-5,7′-((4-chlorophenyl)difluoromethyl)-4′-((3,5-dichlorophenyl)carbamoyl)-2-oxospiro[indoline-3,2′-pyrrolidine]-3′-carboxylic acid] | + (NAUC “+” refers to an observed NAUC <140% of positive control) | ++ (NAUC “++” refers to an observed NAUC 170-140% of positive control) | +++ (NAUC “+++” refers to an observed NAUC>170% of positive control) | – | – | –
3 | O=C(Nc1cc(Cl)cc(Cl)c1)C1C(C(F)(F)c2cccnc2)NC2(C(=O)Nc3c(Cl)cc(Cl)cc32)C1C(=O)O (stereo not shown) [Example 74.a] | – | – | + (NAUC “+” refers to an observed NAUC <140% of positive control) | – | – | –
4 | CC(C)N(C(=O)[C@H]1[C@H]2CC(F)(F)CN2[C@]2(C(=O)Nc3c(Cl)cc(Cl)cc32)[C@H]1C(=O)O)c1cc(Cl)cc(Cl)c1 [Example 174] | – | – | – | +++ (NAUC “+++” refers to an observed NAUC>170% of positive control) | +++ (NAUC “+++” refers to an observed NAUC>170% of positive control) | +++ (NAUC “+++” refers to an observed NAUC>170% of positive control)
5 | O=C(Nc1cc(Cl)cc(Cl)c1)C1C2CCCN2C2(C(=O)Nc3c(Cl)cc(Cl)cc32)C1C(=O)O (stereo not shown) [Example 15] | – | +++ (NAUC “+++” refers to an observed NAUC>170% of positive control) | +++ (NAUC “+++” refers to an observed NAUC>170% of positive control) | – | – | –
6 | CC(C)(C)c1cccc(CNC(=O)C2C3CC(F)(F)CN3C3(C(=O)Nc4c(Cl)cc(Cl)cc43)C2C(=O)O)c1 (stereo not shown) [Example 54] | – | + (NAUC “+” refers to an observed NAUC <140% of positive control) | +++ (NAUC “+++” refers to an observed NAUC>170% of positive control) | – | – | –
7 | O=C(Nc1cccc2cccnc12)[C@H]1[C@H]2CC(F)(F)CN2[C@]2(C(=O)Nc3c(Cl)cc(Cl)cc32)[C@H]1C(=O)O [Example 127] | + (NAUC “+” refers to an observed NAUC <140% of positive control) | + (NAUC “+” refers to an observed NAUC <140% of positive control) | – | – | – | –
8 | CON(C)C(=O)[C@H]1[C@@H](C(=O)Nc2cc(Cl)cc(Cl)c2)[C@H]2CCCN2[C@]12C(=O)Nc1c(Cl)cc(Cl)cc12 (single isomer, unassigned) [Example 241, (1′R,2′ S,7a′R)-5,7-dichloro-N1′-(3,5-dichlorophenyl)-N2′-methoxy-N2′-methyl-2-oxo-1′,2′,5′,6′,7′,7a′-hexahydrospiro[indoline-3,3′-pyrrolizine]-1′,2′-dicarboxamide] | ++ (NAUC “++” refers to an observed NAUC 170-140% of positive control) | +++ (NAUC “+++” refers to an observed NAUC>170% of positive control) | ++ (NAUC “++” refers to an observed NAUC 170-140% of positive control) | – | – | –
9 | O=C(Nc1cc(Cl)c(OC(F)F)c(Cl)c1)C1C2CC(F)(F)CN2C2(C(=O)Nc3c(Cl)cc(Cl)cc32)C1C(=O)O (stereo not shown) [Example 20] | – | +++ (NAUC “+++” refers to an observed NAUC>170% of positive control) | +++ (NAUC “+++” refers to an observed NAUC>170% of positive control) | – | – | –
10 | O=C(O)[C@H]1[C@@H](C(=O)N(CC2CC2)c2ccccc2-c2ccccc2)[C@H]2CC(F)(F)CN2[C@]12C(=O)Nc1c(Cl)cc(Cl)cc12 [Example 180] | – | – | – | +++ (NAUC “+++” refers to an observed NAUC>170% of positive control) | +++ (NAUC “+++” refers to an observed NAUC>170% of positive control) | + (NAUC “+” refers to an observed NAUC <140% of positive control)
11 | CN(C(=O)[C@H]1[C@H]2CC(F)(F)CN2[C@]2(C(=O)Nc3c(Cl)cc(Cl)cc32)[C@H]1C(=O)O)c1ccccc1C(F)(F)F [Example 176] | – | – | – | +++ (NAUC “+++” refers to an observed NAUC>170% of positive control) | +++ (NAUC “+++” refers to an observed NAUC>170% of positive control) | –
12 | O=C(Nc1cc(Cl)cc(Cl)c1)C1CN(C(=O)NCc2ccccc2)C2(C(=O)Nc3c(Cl)cc(Cl)cc32)C1C(=O)O (stereo not shown) [Example 31] | – | + (NAUC “+” refers to an observed NAUC <140% of positive control) | +++ (NAUC “+++” refers to an observed NAUC>170% of positive control) | – | – | –
13 | O=C(Nc1cc(Cl)cc(Cl)c1)C1CN(CC(F)(F)F)C2(C(=O)Nc3c(Cl)cc(Cl)cc32)C1C(=O)O (stereo not shown) [Example 79c] | + (NAUC “+” refers to an observed NAUC <140% of positive control) | + (NAUC “+” refers to an observed NAUC <140% of positive control) | + (NAUC “+” refers to an observed NAUC <140% of positive control) | – | – | –
14 | CN(C(=O)[C@H]1[C@@H](C(F)(F)F)NC2(C(=O)Nc3c(Cl)cc(Cl)cc32)[C@H]1C(=O)O)c1cc(Cl)cc(Cl)c1 (single isomer, unassigned) [Example 269b] | +++ (NAUC “+++” refers to an observed NAUC>170% of positive control) | +++ (NAUC “+++” refers to an observed NAUC>170% of positive control) | +++ (NAUC “+++” refers to an observed NAUC>170% of positive control) | ++ (NAUC “++” refers to an observed NAUC 170-140% of positive control) | +++ (NAUC “+++” refers to an observed NAUC>170% of positive control) | +++ (NAUC “+++” refers to an observed NAUC>170% of positive control)
15 | O=C(Nc1ccc(O)cc1)C1C2CC(F)(F)CN2C2(C(=O)Nc3c(Cl)cc(Cl)cc32)C1C(=O)O (stereo not shown) [Example 77.a] | – | – | + (NAUC “+” refers to an observed NAUC <140% of positive control) | – | – | –
16 | O=C(Nc1cccc(O)c1)C1C2CC(F)(F)CN2C2(C(=O)Nc3c(Cl)cc(Cl)cc32)C1C(=O)O (stereo not shown) [Example 76.a] | – | – | + (NAUC “+” refers to an observed NAUC <140% of positive control) | – | – | –
17 | O=C(Nc1cc(Cl)cc(Cl)c1)C1CN(S(=O)(=O)CCc2ccccc2)C2(C(=O)Nc3c(Cl)cc(Cl)cc32)C1C(=O)O (stereo not shown) [Example 25] | – | + (NAUC “+” refers to an observed NAUC <140% of positive control) | ++ (NAUC “++” refers to an observed NAUC 170-140% of positive control) | – | – | –
18 | CN(C(=O)[C@H]1[C@H]2CC(F)(F)CN2[C@]2(C(=O)Nc3c(Cl)cc(Cl)cc32)[C@H]1C(=O)NCC(F)(F)F)c1cc(Cl)cc(Cl)c1 (single isomer, unassigned) [Example 232b] | + (NAUC “+” refers to an observed NAUC <140% of positive control) | + (NAUC “+” refers to an observed NAUC <140% of positive control) | + (NAUC “+” refers to an observed NAUC <140% of positive control) | – | – | –
19 | O=C(Nc1cc(Cl)cc(Cl)c1)C1C(C(F)(F)c2cccc(Cl)c2)NC2(C(=O)Nc3c(Cl)cc(Cl)cc32)C1C(=O)O (stereo not shown) [Example 68.b] | – | – | + (NAUC “+” refers to an observed NAUC <140% of positive control) | – | – | –
20 | CONC(=O)[C@H]1[C@@H](C(=O)Nc2cc(Cl)cc(Cl)c2)[C@H]2CCCN2C12C(=O)Nc1c(Cl)cc(Cl)cc12 (stereo partly drawn) [Example 233, (1′R,2′S,7a′R)-5,7-dichloro-N1′-(3,5-dichlorophenyl)-N2′-methoxy-2-oxo-1′,2′,5′,6′,7′,7a′-hexahydrospiro[indoline-3,3′-pyrrolizine]-1,2′-dicarboxamide] | ++ (NAUC “++” refers to an observed NAUC 170-140% of positive control) | +++ (NAUC “+++” refers to an observed NAUC>170% of positive control) | +++ (NAUC “+++” refers to an observed NAUC>170% of positive control) | – | – | –
21 | O=C(Nc1cc(Cl)cc(Cl)c1)C1C(C(F)(F)c2ccc(C(F)(F)F)cc2)NC2(C(=O)Nc3c(Cl)cc(Cl)cc32)C1C(=O)O (stereo not shown) [Example 73.c] | + (NAUC “+” refers to an observed NAUC <140% of positive control) | + (NAUC “+” refers to an observed NAUC <140% of positive control) | +++ (NAUC “+++” refers to an observed NAUC>170% of positive control) | – | – | –
22 | O=C(Nc1cc(Cl)cc(Cl)c1)C1CN(C(=O)CCc2ccccc2)C2(C(=O)Nc3c(Cl)cc(Cl)cc32)C1C(=O)O (stereo not shown) [Example 24] | – | +++ (NAUC “+++” refers to an observed NAUC>170% of positive control) | + (NAUC “+” refers to an observed NAUC <140% of positive control) | – | – | –
23 | O=C(O)[C@H]1[C@@H](C(=O)N(CC2CCCC2)c2cc(Cl)cc(Cl)c2)[C@H]2CC(F)(F)CN2[C@]12C(=O)Nc1c(Cl)cc(Cl)cc12 [Example 145] | – | – | – | +++ (NAUC “+++” refers to an observed NAUC>170% of positive control) | +++ (NAUC “+++” refers to an observed NAUC>170% of positive control) | +++ (NAUC “+++” refers to an observed NAUC>170% of positive control)
24 | O=C(Nc1cc(Cl)cc(Cl)c1)C1C2C[C@@](O)(C(F)(F)F)CN2C2(C(=O)Nc3c(Cl)cc(Cl)cc32)C1C(=O)O (stereo partly shown) [Example 56] | – | +++ (NAUC “+++” refers to an observed NAUC>170% of positive control) | +++ (NAUC “+++” refers to an observed NAUC>170% of positive control) | – | – | –
